From US12568972B2, “Pyridazinol compounds and derivatives, preparation methods, herbicidal compositions and applications thereof” (Qingdao Kingagroot Chemical Compound Co., Ltd., priority 2018, dated 2026)

Assays:
Assay in all cases: Post-emergence test, weed control effect
Type in all cases: in vivo
Details in all cases: dose 1000 g/ha, after 3 weeks
Amaranthus retroflexus = test system: Amaranthus retroflexus
Method in brief: (§1)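 Weeds sown in soil-filled pots and sprayed at 2-3 leaf stage (2-3 weeks after sowing) with compound in acetone/Tween-80/water plus 80% vegetable oil methyl ester synergist at 1500 g/ha. After 3 weeks in the greenhouse, fresh-weight growth inhibition scored on a 0-10 scale (10 = completely dead).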

Chenopodiaceae = test system: Chenopodiaceae
Method in brief: as §1

Rorippa indica = test system: Rorippa indica
Method in brief: as §1

Veronica polita = test system: Veronica polita
Method in brief: as §1

Oc1cc(C(F)(F)F)nnc1-c1ccc(Cl)cc1Cl [Compound 39]
10: weed control effect (activity level), Amaranthus retroflexus (Amaranthus retroflexus) | weed control effect (activity level), Chenopodiaceae (Chenopodiaceae) | weed control effect (activity level), Rorippa indica (Rorippa indica) | weed control effect (activity level), Veronica polita (Veronica polita)

Oc1cc(C(F)(F)F)nnc1-c1cc(Cl)cc(Cl)c1 [Compound 40]
10: weed control effect (activity level), Amaranthus retroflexus (Amaranthus retroflexus) | weed control effect (activity level), Chenopodiaceae (Chenopodiaceae) | weed control effect (activity level), Rorippa indica (Rorippa indica) | weed control effect (activity level), Veronica polita (Veronica polita)

Oc1cc(C(F)(F)F)nnc1-c1c(Cl)cccc1Cl [Compound 41]
10: weed control effect (activity level), Amaranthus retroflexus (Amaranthus retroflexus) | weed control effect (activity level), Chenopodiaceae (Chenopodiaceae) | weed control effect (activity level), Rorippa indica (Rorippa indica) | weed control effect (activity level), Veronica polita (Veronica polita)

Oc1cc(C(F)(F)F)nnc1-c1cccc(Cl)c1Cl [Compound 42]
10: weed control effect (activity level), Amaranthus retroflexus (Amaranthus retroflexus) | weed control effect (activity level), Chenopodiaceae (Chenopodiaceae) | weed control effect (activity level), Rorippa indica (Rorippa indica) | weed control effect (activity level), Veronica polita (Veronica polita)

Oc1cc(C(F)(F)F)nnc1-c1ccc(F)cc1Cl [Compound 44]
10: weed control effect (activity level), Amaranthus retroflexus (Amaranthus retroflexus) | weed control effect (activity level), Chenopodiaceae (Chenopodiaceae) | weed control effect (activity level), Rorippa indica (Rorippa indica) | weed control effect (activity level), Veronica polita (Veronica polita)

Oc1cc(C(F)(F)F)nnc1-c1cccc(Cl)c1F [Compound 45]
10: weed control effect (activity level), Amaranthus retroflexus (Amaranthus retroflexus) | weed control effect (activity level), Chenopodiaceae (Chenopodiaceae) | weed control effect (activity level), Rorippa indica (Rorippa indica) | weed control effect (activity level), Veronica polita (Veronica polita)

Oc1cc(C(F)(F)F)nnc1-c1cc(F)cc(Cl)c1 [Compound 46]
10: weed control effect (activity level), Amaranthus retroflexus (Amaranthus retroflexus) | weed control effect (activity level), Chenopodiaceae (Chenopodiaceae) | weed control effect (activity level), Rorippa indica (Rorippa indica) | weed control effect (activity level), Veronica polita (Veronica polita)

Oc1cc(C(F)(F)F)nnc1-c1c(F)cccc1Br [Compound 47]
10: weed control effect (activity level), Amaranthus retroflexus (Amaranthus retroflexus) | weed control effect (activity level), Chenopodiaceae (Chenopodiaceae) | weed control effect (activity level), Rorippa indica (Rorippa indica) | weed control effect (activity level), Veronica polita (Veronica polita)

Oc1cc(C(F)(F)F)nnc1-c1cccc(Br)c1F [Compound 48]
10: weed control effect (activity level), Amaranthus retroflexus (Amaranthus retroflexus) | weed control effect (activity level), Chenopodiaceae (Chenopodiaceae) | weed control effect (activity level), Rorippa indica (Rorippa indica) | weed control effect (activity level), Veronica polita (Veronica polita)

Oc1cc(C(F)(F)F)nnc1-c1cc(F)cc(Br)c1 [Compound 49]
10: weed control effect (activity level), Amaranthus retroflexus (Amaranthus retroflexus) | weed control effect (activity level), Chenopodiaceae (Chenopodiaceae) | weed control effect (activity level), Rorippa indica (Rorippa indica) | weed control effect (activity level), Veronica polita (Veronica polita)

Oc1cc(C(F)(F)F)nnc1-c1cc(C(F)(F)F)ccc1F [Compound 50]
10: weed control effect (activity level), Amaranthus retroflexus (Amaranthus retroflexus) | weed control effect (activity level), Chenopodiaceae (Chenopodiaceae) | weed control effect (activity level), Rorippa indica (Rorippa indica) | weed control effect (activity level), Veronica polita (Veronica polita)

Oc1cc(C(F)(F)F)nnc1-c1c(F)cc(F)cc1F [Compound 52]
10: weed control effect (activity level), Amaranthus retroflexus (Amaranthus retroflexus) | weed control effect (activity level), Chenopodiaceae (Chenopodiaceae) | weed control effect (activity level), Rorippa indica (Rorippa indica) | weed control effect (activity level), Veronica polita (Veronica polita)

Oc1cc(C(F)(F)F)nnc1-c1cc(F)c(F)c(F)c1 [Compound 53]
10: weed control effect (activity level), Amaranthus retroflexus (Amaranthus retroflexus) | weed control effect (activity level), Chenopodiaceae (Chenopodiaceae) | weed control effect (activity level), Rorippa indica (Rorippa indica) | weed control effect (activity level), Veronica polita (Veronica polita)

Oc1cc(C(F)(F)F)nnc1-c1c(F)ccc(F)c1F [Compound 54]
10: weed control effect (activity level), Amaranthus retroflexus (Amaranthus retroflexus) | weed control effect (activity level), Chenopodiaceae (Chenopodiaceae) | weed control effect (activity level), Rorippa indica (Rorippa indica) | weed control effect (activity level), Veronica polita (Veronica polita)

Oc1cc(C(F)(F)F)nnc1-c1c(F)c(F)c(F)c(F)c1F [Compound 55]
10: weed control effect (activity level), Amaranthus retroflexus (Amaranthus retroflexus) | weed control effect (activity level), Chenopodiaceae (Chenopodiaceae) | weed control effect (activity level), Rorippa indica (Rorippa indica) | weed control effect (activity level), Veronica polita (Veronica polita)

Cc1ccc(-c2nnc(C(F)(F)F)cc2O)cc1F [Compound 56]
10: weed control effect (activity level), Amaranthus retroflexus (Amaranthus retroflexus) | weed control effect (activity level), Chenopodiaceae (Chenopodiaceae) | weed control effect (activity level), Rorippa indica (Rorippa indica) | weed control effect (activity level), Veronica polita (Veronica polita)

Cc1ccc(F)c(-c2nnc(C(F)(F)F)cc2O)c1 [Compound 57]
10: weed control effect (activity level), Amaranthus retroflexus (Amaranthus retroflexus) | weed control effect (activity level), Chenopodiaceae (Chenopodiaceae) | weed control effect (activity level), Rorippa indica (Rorippa indica) | weed control effect (activity level), Veronica polita (Veronica polita)

Cc1cc(F)ccc1-c1nnc(C(F)(F)F)cc1O [Compound 58]
10: weed control effect (activity level), Amaranthus retroflexus (Amaranthus retroflexus) | weed control effect (activity level), Chenopodiaceae (Chenopodiaceae) | weed control effect (activity level), Rorippa indica (Rorippa indica) | weed control effect (activity level), Veronica polita (Veronica polita)

Cc1ccc(-c2nnc(C(F)(F)F)cc2O)c(F)c1 [Compound 59]
10: weed control effect (activity level), Amaranthus retroflexus (Amaranthus retroflexus) | weed control effect (activity level), Chenopodiaceae (Chenopodiaceae) | weed control effect (activity level), Rorippa indica (Rorippa indica) | weed control effect (activity level), Veronica polita (Veronica polita)

COc1ccc(F)cc1-c1nnc(C(F)(F)F)cc1O [Compound 60]
10: weed control effect (activity level), Amaranthus retroflexus (Amaranthus retroflexus) | weed control effect (activity level), Chenopodiaceae (Chenopodiaceae) | weed control effect (activity level), Rorippa indica (Rorippa indica) | weed control effect (activity level), Veronica polita (Veronica polita)

O=[N+]([O-])c1ccc(F)c(-c2nnc(C(F)(F)F)cc2O)c1 [Compound 61]
10: weed control effect (activity level), Amaranthus retroflexus (Amaranthus retroflexus) | weed control effect (activity level), Chenopodiaceae (Chenopodiaceae) | weed control effect (activity level), Rorippa indica (Rorippa indica) | weed control effect (activity level), Veronica polita (Veronica polita)

COc1c(C)ccc(F)c1-c1nnc(C(F)(F)F)cc1O [Compound 62]
10: weed control effect (activity level), Amaranthus retroflexus (Amaranthus retroflexus) | weed control effect (activity level), Chenopodiaceae (Chenopodiaceae) | weed control effect (activity level), Rorippa indica (Rorippa indica) | weed control effect (activity level), Veronica polita (Veronica polita)

O=Cc1c(F)cccc1-c1nnc(C(F)(F)F)cc1O [Compound 63]
10: weed control effect (activity level), Amaranthus retroflexus (Amaranthus retroflexus) | weed control effect (activity level), Chenopodiaceae (Chenopodiaceae) | weed control effect (activity level), Rorippa indica (Rorippa indica) | weed control effect (activity level), Veronica polita (Veronica polita)

O=Cc1ccc(-c2nnc(C(F)(F)F)cc2O)c(F)c1 [Compound 64]
10: weed control effect (activity level), Amaranthus retroflexus (Amaranthus retroflexus) | weed control effect (activity level), Chenopodiaceae (Chenopodiaceae) | weed control effect (activity level), Rorippa indica (Rorippa indica) | weed control effect (activity level), Veronica polita (Veronica polita)

O=Cc1ccc(-c2nnc(C(F)(F)F)cc2O)cc1F [Compound 65]
10: weed control effect (activity level), Amaranthus retroflexus (Amaranthus retroflexus) | weed control effect (activity level), Chenopodiaceae (Chenopodiaceae) | weed control effect (activity level), Rorippa indica (Rorippa indica) | weed control effect (activity level), Veronica polita (Veronica polita)

O=[N+]([O-])c1cc(-c2nnc(C(F)(F)F)cc2O)ccc1F [Compound 66]
10: weed control effect (activity level), Amaranthus retroflexus (Amaranthus retroflexus) | weed control effect (activity level), Chenopodiaceae (Chenopodiaceae) | weed control effect (activity level), Rorippa indica (Rorippa indica) | weed control effect (activity level), Veronica polita (Veronica polita)

O=Cc1ccc(F)cc1-c1nnc(C(F)(F)F)cc1O [Compound 67]
10: weed control effect (activity level), Amaranthus retroflexus (Amaranthus retroflexus) | weed control effect (activity level), Chenopodiaceae (Chenopodiaceae) | weed control effect (activity level), Rorippa indica (Rorippa indica) | weed control effect (activity level), Veronica polita (Veronica polita)

COc1cccc(-c2nnc(C(F)(F)F)cc2O)c1F [Compound 68]
10: weed control effect (activity level), Amaranthus retroflexus (Amaranthus retroflexus) | weed control effect (activity level), Chenopodiaceae (Chenopodiaceae) | weed control effect (activity level), Rorippa indica (Rorippa indica) | weed control effect (activity level), Veronica polita (Veronica polita)
